Data set [1] concerns influenza A/Texas/36/91 (H1N1). In words: Efficacy of UV-12 and UV-28 against lethal INFV A/Texas/36/91 (H1N1) challenge in mice. Format: in vivo, BALB/c mice. As to conditions: for % Survival / Mean Survival: ~1LD90 intranasal; for Health score recovery of infected mice: 100 mg/kg TID; for Weight recovery of infected mice: treated infected mice. How it is done:
Study Summary: This study tested the ability of iminosugars UV-12 and UV-28 to protect mice from lethal influenza infection (˜1LD90 of influenza A/Texas/36/91 (H1N1) administered intranasally). Compounds were delivered 30-60 minutes prior to viral challenge via the oral (IG) route at 100 or 40 mg/kg and continued three times daily for 10 days. The mice used were ˜20 gram, 6-8 week old female BALB/c mice in groups of 10 for efficacy (a summary of the study groups is shown in Table 1). Temperature and weights were taken daily. Endpoint was day 14 post infection, death, or euthanasia. Animals displaying severe illness as determined by >30% weight loss, extreme lethargy, or paralysis were euthanized.
This study tested the ability of UV-12 and UV-28 to protect mice from lethal influenza infection. The mice used were 6-8 week old female BALB/c mice in groups of 10 (see Table 5 below). Mice were treated with 100 or 40 mg/kg three times daily (TID) via IG route starting approximately 30-60 minutes prior to challenge. Mice were challenged with ˜1 LD90 of influenza A/Texas/36/91 (H1N1) administered intranasally (IN). Endpoint was day 14 post infection, death, or euthanasia. Animals displaying severe illness as determined by >30% weight loss, extreme lethargy, or paralysis were euthanized. Temperature and weights were taken daily.
3. The groups of mice challenged with INFV were infected via intranasal (IN) inoculation with ˜1×LD90 in 100 μL of a 1:500 dilution of INFV in PBS under light anesthesia (Isoflurane).
1. Mice were treated with 100 or 40 mg/kg of test article given by the IG route in 100 μL of water (see Table 5 for dosing regimens) three times daily for 10 days.
(§1) 1. Mice were observed through 13 days post infection (14 days total, 0-13 days post infection).
(§2) 2. Mice were weighed daily on an Ohause scale and the weights were recorded.
3. All animals had chips implanted at least 3 days prior to virus challenge that monitored the body temperature. The temperatures were recorded daily.
4. Survival and health of each mouse was evaluated once time a day using a scoring system of 1-7.
FIG. 1 is a plot presenting survival data of infected mice grouped by treatment. The survival data plotted in FIG. 1 were analyzed using the Mantel-Cox (Log rank) test in GraphPad Prism.

Another data set deals with DENV2 Strain S221. Briefly: Survival analysis of UV-12 in A129 ADE model of dengue infection. Format: in vivo, A129 mice. As to conditions: 100 mg/kg/dose orally 3x per day for 7 days, first dose 1 hr before IV challenge. The text has this: Purpose: This study determined the efficacy of UV-12 in promoting survival of mice challenged with dengue virus. Compound were given by the oral route (3× per day intragastric via oral gavage—IG) for a total number of 7 days after the start of dosing. The experiment used the A129 ADE model of infection. (Prestwood T R, Morar M M, Zellweger R M, Miller R, May M M, Yauch L E, Lada S M. Shresta S. Gamma interferon (IFN-γ) receptor restricts systemic dengue virus replication and prevents paralysis in IFN-α/β receptor-deficient mice. J Virol. 2012 December; 86(23):12561-70.) Animals received the virus challenge dose ˜1 LD90 on day 0. The first dose was given 0.5-1 hr pre-virus challenge. Survival was measured until 30 days after infection.
Mice: Sex matched 5-6 weeks old A129 (129/SV IFN-α, -β receptor^−/−)
Iminosugar: Orally 3× day, (gavage (IG)) every 8 hours
Antibody and Iminosugar Compound were given simultaneously, then virus within 30 minutes
Antibody: 100 μg 2H2 (IgG2a anti-DENV1-4 prM) from ATCC, day 0 and day 1 in 40 ul
Virus: DENV2 Strain S221 (v512) (Zellweger R M, Prestwood T R, Shresta S.
Dose: 1E11 GE (genomic equivalents) per animal
Animal survival. Animals displaying severe illness (as determined by 20% weight loss, extreme lethargy, ruffled coat, or paralysis) are euthanized.
FIG. 5 presents results of this study. […]

The conditions of data set [2]: 100 mg/kg oral TID; for Survival without a viral challenge: uninfected, n=3.
In data set [3] the test system is influenza A/Texas/36/91 (H1N1). Briefly: Efficacy of selected iminosugars in mice; Influenza A/Texas/36/91 (H1N1) challenge. Format: in vivo, BALB/c mice. As to conditions: for Survival versus untreated/vehicle control group / Survival rate / MTD: 100 mg/kg oral TID for 10 days; for Survival rate / MTD: infected ~1 LD90. How it is done: (§3) Study Summary: This study analyzed the toxicity and efficacy of UV-8, UV-9, UV-10, UV-11, and UV-12 in mice during an H1N1 influenza infection. […] In the current study, we examined delivery doses of UV-4B. UV-8, UV-9, UV-10. UV-11 and UV-12 at 100 mg/kg, delivered ter in die by the oral route (intragastric via oral gavage or IG. Small groups (n=3) that were included to examine gross toxicity received 100 mg/kg of the iminosugars but without a viral challenge. UV-4B, UV-8. UV-9, UV-10. UV-11 or UV-12 was delivered to the animals starting at 1 hour before intranasal infection (IN) with ˜1 LD90 of influenza A/Texas/36/91 (H1N1). Animals were then treated TID for 10 days total (days 0-9 post infection). Efficacy was evaluated by comparing survival, temperature changes, and weight gain/loss to an infected untreated control group.
This study aimed to determine the efficacy of UV-8. UV-9, UV-10, UV-11, and UV-12 when administered orally at 100 mg/kg TID against a lethal intranasal infection with influenza virus A/Texas/36/91 (H1N1) in the BALB/c mouse model. In addition to the efficacy arm, each of the iminosugars was tested in a small group of animals with the same treatment regimen (100 mg/kg, oral gavage, TID) in the absence of a viral infection to examine gross toxicity of each analog (general health, weight, temperature, and mortality evaluations).
UV-8, -9, -10, -11, -12, and UV-4B were prepared in H2O at 20 mg/ml for a delivery dose of 100 mg/kg, assuming ˜20 g mice given 0.1 mL of compound. Groups of BALB/c mice were treated at one hour before (−1 h) intranasal infection with ˜1 LD90 of INFV A/Texas/36/91 (H1N1) and then compounds were administered three times daily for a total of 10 days (see Table 12 for study design summary). Weights, temperature, and survival were monitored and used for evaluation of protective efficacy and toxicity of each analog.
3. The groups of mice challenged with influenza were anesthetized with 5% Isofluorene and maintained at 2.5% prior to intranasal inoculation with ˜1 LD90 of INFV in 100 μL PBS.
1. Mice were treated starting at 1 hour before infection with 100 μL of compound in H2O (see Table 12 for dosing regimens) three times a day for 10 days total with 100 mg/kg of UV-4B, UV-8, UV-9, UV-10, UV-11, or UV-12 compound given by the oral route (intragastric via oral gavage). 2. After dosing, mice were returned to their cages and monitored for any distress related to dosing.
as §1, §2
3. All animals had chips implanted that monitored the body temperature. The temperatures were recorded daily.
4. Survival and health of each mouse was evaluated three times a day using a scoring system of 1-7.
5. Mice were euthanized when scored at 5 or above (Very Sick; Very Rufftled Coat; Closed, inset eyes; Slow to no movement; Will return to upright position if put on its side; extremely lethargic).

For the next data set, the system named is H1N1. Briefly: Previous studies: oral UV-4B TID at 100 mg/kg against H1N1. Format: in vivo. As to conditions: oral TID at 100 mg/kg. As to the method:
as §3

Entries after “also recorded” stand apart in the source; their conditions may differ. A value given as a limit tells only on which side of the number the result lay.

On to `COC(C)(C)CCCCCCCCN1C[C@H](O)[C@@H](O)[C@H](O)[C@H]1CO` [UV-28], for which, in data set [1] (40 mg/kg TID IG for 10 days), the “% Survival” value is 60% and the “Mean Survival” value is more than 13 days. For the same compound, in data set [1] (100 mg/kg TID IG for 10 days), the “% Survival” value worked out at 100% and the “Mean Survival” value was more than 13 days. In addition, in data set [1] (FIG. 4), the “Health score recovery of infected mice” value is listed as “never recovered their health score” and the “Toxicity compared (health scores)” value is given as “more toxic than UV-12”. For the same compound, the “Weight recovery of infected mice” value in data set [1] is given as “did not recover their weight as well”.

Take `OCC1C(O)C(O)C(O)CN1CCCCCCCCC1CCCO1` (mixture of isomers) [UV-12]: the “Survival compared to control animals” value in the data set with DENV2 Strain S221 is “increased survival”. In data set [1] (40 mg/kg TID IG for 10 days), the “% Survival” value was found to be 20% and the “Mean Survival” value stood at 9 days. In data set [1] (100 mg/kg TID IG for 10 days), the “% Survival” value is 100% and the “Mean Survival” value was more than 13 days. Besides, the “Health score recovery of infected mice” value in data set [1] (FIG. 4) was “fully recovered from the infection and returned to normal”. For the same compound, in data set [1], the “Weight recovery of infected mice” value is on record as “almost completely recovered”. Further, in data set [2], the “Recovery after dosing regimen completed, uninfected mice” value was “able to fully recover”; the “Toxicity in the uninfected group” value is recorded as “mild toxicity with steady weight loss”; the “Weight loss overall in uninfected mice” value is not above 10%; the “Survival without a viral challenge” value turned out to be 100%. Besides, in data set [3], the “Survival versus untreated/vehicle control group” value was “significant increase in survival” and the Survival rate is on record as 90%. Also, the “Overall temperature and weight versus vehicle control” value in data set [3] (100 mg/kg oral TID, infected mice) was “significant increases in overall temperature and weight”.

For the compound `COCCCCCCCCCN1C[C@H](O)[C@@H](O)[C@H](O)[C@H]1CO` [UV-4B, N-9-methoxynonyl-deoxynojirimycin, reference compound], in the data set with H1N1, the “Efficacy against H1N1” value is reported as “resulted in efficacy” and the Signs of toxicity entry is listed as “did not show any discernible signs of toxicity”. Moreover, in data set [3], the “Survival versus untreated/vehicle control group” value is “significant increase in survival” and the Survival rate was determined as 100%.

On to `COCCCCCCCOC(=O)N1C[C@H](O)[C@@H](O)[C@H](O)[C@H]1CO` [UV-9], for which the “Survival without a viral challenge” value in data set [2] is on record as 100%. In addition, in data set [3], the “Survival versus untreated/vehicle control group” value is “did not show any improvement in survival”, the MTD is listed as 7 days and the Survival rate is recorded as 0%.

Turning to `OCCCCCCCCCN1C[C@H](O)[C@@H](O)[C@H](O)[C@H]1CO` [UV-11], in data set [2], the “Survival without a viral challenge” value was 100%. Besides, in data set [3], the “Survival versus untreated/vehicle control group” value was “did not show any improvement in survival”, the MTD was 8 days and the Survival rate stood at 0%.

With `COC(=O)CCCCCCCCN1C[C@H](O)[C@@H](O)[C@H](O)[C@H]1CO` [UV-10], the “Survival without a viral challenge” value in data set [2] was 100%. Besides, in data set [3], the “Survival versus untreated/vehicle control group” value is listed as “did not show any improvement in survival”, the MTD worked out at 7.5 days and the Survival rate was found to be 0%.

As for `COCCCCCCCCC(=O)N1C[C@H](O)[C@@H](O)[C@H](O)[C@H]1CO` [UV-8], in data set [2], the “Survival without a viral challenge” value is given as 100%. In data set [3], the “Survival versus untreated/vehicle control group” value is given as “did not show any improvement in survival; also recorded: no significant difference from the vehicle control group”, the MTD is on record as 10.5 days and the Survival rate turned out to be 30%.

The record behind these values is patent US10144727B2, “Deoxynojirimycin derivatives and methods of their using” (priority 2013, dated 2018).
